Molecular target: Signal transducer and activator of transcription 3 (Homo sapiens, UniProt P40763)
Test: In Vitro Assay
Experimental: Except where indicated, nuclear extracts were pre-incubated with compound for 30 min at room temperature prior to incubation with the radiolabeled probe for 30 min at 30° C. before subjecting to EMSA analysis. Where appropriate, bands corresponding to Stat3:DNA complexes were scanned and quantified for each concentration of compound using ImageJ and plotted as percent of control (DMSO) against concentration of compound, from which the IC50 values were derived.

Chain of Signal transducer and activator of transcription 3 (P40763 whole entry): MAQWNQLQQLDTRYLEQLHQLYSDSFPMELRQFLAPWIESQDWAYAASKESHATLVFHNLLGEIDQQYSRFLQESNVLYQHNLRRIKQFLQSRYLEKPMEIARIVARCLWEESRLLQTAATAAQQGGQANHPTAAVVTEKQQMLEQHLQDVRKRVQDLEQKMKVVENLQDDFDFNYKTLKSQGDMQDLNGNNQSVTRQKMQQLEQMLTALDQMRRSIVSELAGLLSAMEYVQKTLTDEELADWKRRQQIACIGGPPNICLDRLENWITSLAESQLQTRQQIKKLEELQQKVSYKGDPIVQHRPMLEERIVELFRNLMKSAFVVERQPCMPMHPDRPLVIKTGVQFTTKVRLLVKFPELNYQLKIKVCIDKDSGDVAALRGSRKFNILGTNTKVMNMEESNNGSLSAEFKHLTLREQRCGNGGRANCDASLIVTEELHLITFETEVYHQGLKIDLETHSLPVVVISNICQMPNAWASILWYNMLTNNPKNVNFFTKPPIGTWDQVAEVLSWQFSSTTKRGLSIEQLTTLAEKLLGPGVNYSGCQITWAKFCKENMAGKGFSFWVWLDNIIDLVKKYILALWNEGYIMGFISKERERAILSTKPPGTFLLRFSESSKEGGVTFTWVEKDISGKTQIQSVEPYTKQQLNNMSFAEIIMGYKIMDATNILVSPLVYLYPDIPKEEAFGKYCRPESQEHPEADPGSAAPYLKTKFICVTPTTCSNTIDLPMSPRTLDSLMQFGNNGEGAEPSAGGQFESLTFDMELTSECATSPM

IC50: 422 nM
Structure (SMILES): O=C(O)c1ccc(N(Cc2cnc(C3CCCCC3)cn2)C(=O)[C@H]2CCN2S(=O)(=O)c2c(F)c(F)c(F)c(Cl)c2F)cc1O [US11299480, Example 152]

From BindingDB's records for patent US11299480 (University of Hawaii, 2022)
